Literature values, collected in patent publication US20080102137A1, “Composition and method for etiological treatment and prevention of diseases and/or complications associated with chronic glucose metabolism destabilization” (priority 2006, published 2008).

Legend:
[1] = patients with panic disorders
[2] = 600 mg synthetic α-tocopherol daily for 14 days, diabetic individuals
blood platelet = blood platelet assay
fat cells = conditions: test tube assay of fat cells

In the case of `CN(C)C(=N)N=C(N)N` [Metformin], the “lowers fasting blood glucose levels” value (average) is listed as 25%, the “reduces raised plasma insulin levels” value (cases of metabolic syndrome) is listed as no more than 30% and the “lowers postprandial blood glucose” value (in vivo) is listed as “up to 44.5%”.

In the case of `O[C@H]1[C@H](O)[C@@H](O)[C@H](O)[C@@H](O)[C@H]1O` [inositol], the “frequency and severity of panic attacks” value [1] is listed as “reduction in the frequency and severity of panic attacks”.

In the case of `Cc1c(C)c2c(c(C)c1O)CC[C@@](C)(CCC[C@H](C)CCC[C@H](C)CCCC(C)C)O2` [α-tocopherol], the “biochemical marker of oxidative stress” value [2] is given as “reduction in the oxidative stress marker”.

For methylhydroxy chalcone polymer [MHCP], the “formation of damaging oxygen radicals” value (blood platelet) is given as “prevented the formation of damaging oxygen radicals” and the increased glucose metabolism (fat cells) is given as “roughly 20 fold”.
